The test system of the experiment is P388 leukemia ip, CD2F1 mice, survival T/C. Nature of the experiment: NCI In Vivo Anticancer Drug Screen. Data for tumor model P388 Leukemia (intraperitoneal) in CD2F1 (CDF1) mice. As to conditions: endpoint: median survival time, higher = longer survival. A digest of the protocol:
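Mice carrying the transplanted tumor received test compound or vehicle. Survival was recorded in each group, and the value is the treated-group measurement divided by that of the vehicle-treated control group.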

[1] abbreviates: dose: 100.0 mg/kg/injection, schedule: Q01DX009 (ip), vehicle: saline with Tween-80.
[2] abbreviates: dose: 50.0 mg/kg/injection, schedule: Q01DX009 (ip), vehicle: saline with Tween-80.
Setting [3] is: dose: 200.0 mg/kg/injection, schedule: Q01DX009 (ip), vehicle: saline with Tween-80.
[4] abbreviates: dose: 60.0 mg/kg/injection, schedule: Q01DX005 (ip), vehicle: saline with Tween-80.
Setting [5] is: dose: 120.0 mg/kg/injection, schedule: Q01DX005 (ip), vehicle: saline with Tween-80.
The mark [6] stands for this setting: dose: 240.0 mg/kg/injection, schedule: Q01DX005 (ip), vehicle: saline with Tween-80.
Where [7] appears, read: dose: 100.0 mg/kg/injection, schedule: Q01DX001 (ip), vehicle: Klucel (hydroxypropylcellulose) (HPC).
[8] abbreviates: dose: 200.0 mg/kg/injection, schedule: Q01DX001 (ip), vehicle: Klucel (hydroxypropylcellulose) (HPC).
Where [9] appears, read: dose: 400.0 mg/kg/injection, schedule: Q01DX001 (ip), vehicle: Klucel (hydroxypropylcellulose) (HPC).
The mark [10] stands for this setting: dose: 50.0 mg/kg/injection, schedule: Q01DX009 (ip), vehicle: Klucel (hydroxypropylcellulose) (HPC).
Setting [11] is: dose: 100.0 mg/kg/injection, schedule: Q01DX009 (ip), vehicle: Klucel (hydroxypropylcellulose) (HPC).
Setting [12] is: dose: 200.0 mg/kg/injection, schedule: Q01DX009 (ip), vehicle: Klucel (hydroxypropylcellulose) (HPC).

25 molecules from PubChem BioAssay AID330 (DTP/NCI, 2004) can be followed below.

“And” between values parts separate entries of the source, which are not always exact repeats. Equal entries are not always repeated. Toxic doses and inconclusive results are not listed.

Take `CCCCCCCCCCCCCCCCCCCCCC(=O)Nc1ccn(C2OC(CO)C(O)C2O)c(=O)n1` (centres undefined): the T/C by setting is: (dose: 1.56 mg/kg/injection, schedule: Q01DX009 (ip), vehicle: saline with Tween-80) 155 % of control; (dose: 3.12 mg/kg/injection, schedule: Q01DX009 (ip), vehicle: saline with Tween-80) 198 % of control and 209 % of control; (dose: 6.25 mg/kg/injection, schedule: Q01DX009 (ip), vehicle: saline with Tween-80) 106 % of control and 206 % of control and 235 % of control; (dose: 12.5 mg/kg/injection, schedule: Q01DX009 (ip), vehicle: saline with Tween-80) 256 % of control and 309 % of control; under setting [1], 195 % of control.

On to `CCCn1c(C)nc2c(cnn2C)c1=O`, for which the T/C is 101 % of control (dose: 50.0 mg/kg/injection, schedule: Q01DX005 (ip), vehicle: Klucel (hydroxypropylcellulose) (HPC)); 104 % of control (dose: 100.0 mg/kg/injection, schedule: Q01DX005 (ip), vehicle: Klucel (hydroxypropylcellulose) (HPC)); 111 % of control (dose: 200.0 mg/kg/injection, schedule: Q01DX005 (ip), vehicle: Klucel (hydroxypropylcellulose) (HPC)).

`CC12CCC(=O)C=C1CCCC2=O` (centres undefined): the T/C runs as follows: (dose: 50.0 mg/kg/injection, schedule: Q04DX003 (ip), vehicle: saline) 95 % of control; (dose: 100.0 mg/kg/injection, schedule: Q04DX003 (ip), vehicle: saline) 100 % of control; (dose: 200.0 mg/kg/injection, schedule: Q04DX003 (ip), vehicle: saline) 90 % of control.

In the case of `O=S(=O)(c1cnccc1N1CCN(CCO)CC1)N1CCCCC1`, the T/C runs as follows: (dose: 50.0 mg/kg/injection, schedule: Q01DX009 (ip), vehicle: saline) 101 % of control; (dose: 100.0 mg/kg/injection, schedule: Q01DX009 (ip), vehicle: saline) 105 % of control.

On to `CC1CCCC(C)N1C1=NCCO1` (centres undefined), for which the T/C was 95 % of control (dose: 5.0 mg/kg/injection, schedule: Q04DX003 (ip), vehicle: saline); 100 % of control (dose: 10.0 mg/kg/injection, schedule: Q04DX003 (ip), vehicle: saline); 95 % of control (dose: 20.0 mg/kg/injection, schedule: Q04DX003 (ip), vehicle: saline).

Turning to `CCCCCCCCOC(=O)c1ccc(I)cc1`, the T/C under setting [2] is 97 % of control, the T/C under setting [1] is 101 % of control and the T/C under setting [3] was 97 % of control.

Turning to `N#CN(Cc1ccccc1)Cc1ccccc1.[I][Sn]([c]1ccccc1)([c]1ccccc1)[c]1ccccc1`, the T/C (dose: 1.5 mg/kg/injection, schedule: Q01DX005 (ip), vehicle: saline with Tween-80) is 101 % of control; the T/C (dose: 3.0 mg/kg/injection, schedule: Q01DX005 (ip), vehicle: saline with Tween-80) was 108 % of control; the T/C (dose: 6.0 mg/kg/injection, schedule: Q01DX005 (ip), vehicle: saline with Tween-80) is 100 % of control; the T/C (dose: 6.25 mg/kg/injection, schedule: Q01DX005 (ip), vehicle: saline with Tween-80) was 94 % of control.

On to `O=C(CN1C(=O)c2cccc3c(Br)ccc(c23)C1=O)c1ccc(F)cc1`, for which the T/C was 87 % of control (dose: 50.0 mg/kg/injection, schedule: Q01DX005 (ip), vehicle: saline with Tween-80); 103 % of control (dose: 100.0 mg/kg/injection, schedule: Q01DX005 (ip), vehicle: saline with Tween-80); 89 % of control (dose: 200.0 mg/kg/injection, schedule: Q01DX005 (ip), vehicle: saline with Tween-80).

With `O=C1c2ccccc2-c2c(Br)cc(Br)c(NC(=O)C(Cl)Cl)c21`, the T/C by setting is: under setting [4], 96 % of control; under setting [5], 96 % of control; under setting [6], 92 % of control.

In the case of `CCOC(=O)C(=O)C1CC(c2ccccc2)=NNC1=O` (centres undefined), the T/C runs as follows: under setting [2], 99 % of control; under setting [1], 103 % of control; under setting [3], 96 % of control.

Consider `c1ccc2c(c1)OC1(CCSCC1)O2`, for which the T/C runs as follows: (dose: 100.0 mg/kg/injection, schedule: Q01DX001 (ip), vehicle: saline with Tween-80) 95 % of control; (dose: 200.0 mg/kg/injection, schedule: Q01DX001 (ip), vehicle: saline with Tween-80) 95 % of control; (dose: 400.0 mg/kg/injection, schedule: Q01DX001 (ip), vehicle: saline with Tween-80) 100 % of control.

For `Cc1cccc(-n2c(-c3ccccc3)cs/c2=N\N=C2/CSC(=O)N2Cc2ccccc2)c1`, the T/C runs as follows: under setting [7], 101 % of control; under setting [8], 101 % of control; under setting [9], 99 % of control.

Take `O=c1ccc2nccc3c4cc(O)ccc4n1c23`: the T/C was 98 % of control (dose: 1.75 mg/kg/injection, schedule: Q01DX009 (ip), vehicle: saline with Tween-80) and 109 % of control (dose: 7.0 mg/kg/injection, schedule: Q01DX009 (ip), vehicle: saline with Tween-80).

As for `N#CC(=C1SCS1)[N+](=O)[O-]`, the T/C was 121 % of control (dose: 1.56 mg/kg/injection, schedule: Q01DX009 (ip), vehicle: saline) and 121 % of control (dose: 3.13 mg/kg/injection, schedule: Q01DX009 (ip), vehicle: saline with Tween-80).

For the molecule `CCC1(C(=O)c2ccccc2)C(C(=O)OC)=NC(=S)N=C1C(=O)OC`, the T/C was 99 % of control under setting [4], 90 % of control under setting [5] and 100 % of control under setting [6].

With `Cc1cc(N)ccc1Cl`, the T/C (dose: 25.0 mg/kg/injection, schedule: Q01DX009 (ip), vehicle: saline with Tween-80) was 97 % of control; the T/C under setting [2] is 110 % of control; the T/C under setting [1] is 93 % of control; the T/C under setting [3] was 96 % of control.

On to `Cn1cnc2cc(N3CCCCC3)c([N+](=O)[O-])cc2c1=O`, for which the T/C is 101 % of control under setting [10], 107 % of control under setting [11] and 99 % of control under setting [12].

With `O=C(N=C=S)c1ccccc1`, the T/C is, setting by setting: (dose: 100.0 mg/kg/injection, schedule: Q04DX003 (ip), vehicle: other) 90 % of control; (dose: 200.0 mg/kg/injection, schedule: Q04DX003 (ip), vehicle: other) 100 % of control; (dose: 400.0 mg/kg/injection, schedule: Q04DX003 (ip), vehicle: other) 109 % of control.

Regarding `O=C1OC(=O)C2C3C=CC(C4C=CC43)C12` (centres undefined), the T/C (dose: 25.0 mg/kg/injection, schedule: Q01DX009 (ip), vehicle: Klucel (hydroxypropylcellulose) (HPC)) is 106 % of control; the T/C under setting [10] was 115 % of control; the T/C under setting [11] was 115 % of control; the T/C under setting [12] is 97 % of control.

In the case of `c1cncc(C(Nc2cccc3cccnc23)Nc2cccc3cccnc23)c1`, the T/C was 94 % of control under setting [4], 91 % of control under setting [5] and 90 % of control under setting [6].

As to `CCCn1c(=O)n(CC)c(=O)c2[nH]c(Cl)nc21`, the T/C was 100 % of control and 105 % of control (dose: 16.0 mg/kg/injection, schedule: Q01DX009 (ip), vehicle: Klucel (hydroxypropylcellulose) (HPC)); 102 % of control and 105 % of control (dose: 32.0 mg/kg/injection, schedule: Q01DX009 (ip), vehicle: Klucel (hydroxypropylcellulose) (HPC)); 108 % of control and 112 % of control (dose: 64.0 mg/kg/injection, schedule: Q01DX009 (ip), vehicle: Klucel (hydroxypropylcellulose) (HPC)).

In the case of `NC(=O)CCCNC(=O)CCC[c-]1[c-][c-][c-][c-]1.[Fe].[c-]1[c-][c-][cH-][c-]1`, the T/C (dose: 3.13 mg/kg/injection, schedule: Q01DX009 (ip), vehicle: other) is 102 % of control; the T/C (dose: 6.25 mg/kg/injection, schedule: Q01DX009 (ip), vehicle: other) is 102 % of control; the T/C (dose: 12.5 mg/kg/injection, schedule: Q01DX009 (ip), vehicle: other) was 99 % of control and 96 % of control; the T/C (dose: 25.0 mg/kg/injection, schedule: Q01DX009 (ip), vehicle: other) was 123 % of control; the T/C (dose: 50.0 mg/kg/injection, schedule: Q01DX009 (ip), vehicle: other) is 111 % of control and 118 % of control.

Turning to `Cc1ncc(CNC(=O)NCCCl)c(N)n1`, the T/C is 102 % of control under setting [10], 103 % of control under setting [11] and 108 % of control under setting [12].

Take `CC(=O)c1cc2c(cc1Br)OCO2`: the T/C reads like this: under setting [7], 100 % of control; under setting [8], 102 % of control; under setting [9], 108 % of control.

For the molecule `CCCCCCCCCCCCCCCCN1CCS(=O)(=O)CC1`, the T/C is 108 % of control under setting [10]; 100 % of control and 98 % of control under setting [11]; 101 % of control and 88 % of control under setting [12].
